This is an account of results in paper PMC12436592 (Nature Communications, 2025).

“And” between values parts separate entries of the source, which are not always exact repeats. Equal values may be shown once.

What is called IC50 is the midpoint of a concentration-inhibition curve. The low end stands for greater potency in that assay, the high end for weaker potency in that assay. Usually stoichiometry N stands for a count of units in the complex or per binding partner.

For one data set, the target named is T1, hP2X7R (Homo sapiens, UniProt Q99572).
T1 sequence (Q99572 1-595): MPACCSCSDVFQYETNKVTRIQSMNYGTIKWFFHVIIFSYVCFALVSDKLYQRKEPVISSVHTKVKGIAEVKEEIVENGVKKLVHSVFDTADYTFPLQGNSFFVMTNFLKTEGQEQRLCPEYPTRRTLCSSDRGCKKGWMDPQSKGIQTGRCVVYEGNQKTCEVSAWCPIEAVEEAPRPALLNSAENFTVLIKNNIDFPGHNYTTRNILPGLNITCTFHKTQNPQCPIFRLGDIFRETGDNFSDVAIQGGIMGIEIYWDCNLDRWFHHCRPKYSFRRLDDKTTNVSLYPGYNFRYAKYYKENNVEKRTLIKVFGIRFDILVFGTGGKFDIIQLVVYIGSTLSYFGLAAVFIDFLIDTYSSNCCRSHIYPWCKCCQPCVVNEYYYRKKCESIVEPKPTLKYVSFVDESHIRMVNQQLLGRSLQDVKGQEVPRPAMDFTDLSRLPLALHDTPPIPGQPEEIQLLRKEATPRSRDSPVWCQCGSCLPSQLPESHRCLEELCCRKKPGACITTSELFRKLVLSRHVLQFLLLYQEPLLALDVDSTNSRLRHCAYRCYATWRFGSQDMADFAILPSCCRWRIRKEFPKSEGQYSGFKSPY
In words: Ethidium bromide accumulation in hP2X7R-expressing HEK293 cells. It is filed as cell-based. Also on record: expressed in transfected cells. As to conditions: for mean % of maximum accumulation / MAX100 (% of maximum accumulation, replicates 1-3): BzATP 6 μM; for MAX100 (% of maximum accumulation, replicates 1-3): single replicates. How it is done: Human P2X7R-expressing HEK293 cells were cultured in a humidified atmosphere of 5% CO2 at 37 °C in Dulbecco’s Modification of Eagle’s Medium (DMEM; Corning) supplemented with 10% (v/v) fetal bovine serum (Corning) and 1% (v/v) antibiotic–antimycotic (Gibco)[75]. To perform the assay, the DMEM was removed, and the HEK293 cells were washed with 3 mL of 1X DPBS (Dulbecco’s Phosphate-Buffered Saline; Corning). After the removal of DPBS solution, the cells were detached from the dish with 1 mL of trypsin/EDTA (Gibco), and the cells were collected by centrifugation. The cells (density of 2.25 × 10^7) were re-suspended in 4-(2-hydroxyethyl)-1-piperazineethanesulfonic acid (HEPES)-buffered salt solution consisting of 140 mM potassium chloride, 1 mM ethylene diamine tetraacetic acid (EDTA), 5 mM glucose, 20 mM HEPES, and 0.1 mM ethidium bromide (pH 7.4). The vehicles or appropriate range of concentrations of compounds (10 μL, pre-diluted in 10% (v/v) DMSO in DW from 10 mM stock) were added to each well of 96-well black plate (Corning), and 80 μL of the cell suspension was subsequently added to each well. BzATP (10 μL, pre-diluted in DW from 10 mM stock) was then added, and the final assay volume was maintained at 100 μL. After the incubation in 5% CO2 at 37 °C for 2 h, the ethidium dye uptake was detected by measuring the fluorescence (excitation wavelength of 530 nm and emission wavelength of 590 nm) of each well using a CHAMELEON™ Multi-Technology Plate Reader. The antagonistic activities of compounds are expressed as the percentages relative to the maximum accumulation of ethidium bromide observed in the control group with the stimulation of the hP2X7R by an agonist, BzATP. The IC50 values of compounds as antagonists were calculated using nonlinear regression analysis using OriginPro 9.1 software.

Data set [1] concerns the molecule itself. Nature of the data set: cryo-EM structure; purified detergent-solubilised receptor (20 mM HEPES pH 7.0, 100 mM NaCl, 0.5 mM C12M); apo, or incubated with 900 uM ATP or antagonist at 3-4x the molar concentration of the monomer.
Setting [2] is: antagonist concentration 3.2 (unit not given).
Setting [3] is: antagonist concentration 16 (unit not given).
[4] abbreviates: antagonist concentration 80 (unit not given).
Setting [5] is: antagonist concentration 400 (unit not given).
Setting [6] is: antagonist concentration 2000 (unit not given).
The mark [7] stands for this setting: antagonist concentration 10000 (unit not given).

Consider `CC12CC3CC(C)(C1)CC(C(=O)NNc1ccccc1Cl)(C3)C2` [UB-ALT-P36], for which the “mean % of maximum accumulation” value on hP2X7R (setting [2]) was 75.2635%; at hP2X7R (setting [3]), 81.0675%; on hP2X7R (setting [4]) it was 68.3254%; at hP2X7R (setting [5]), 62.0321%; at hP2X7R (setting [6]) it was 5.603%; at hP2X7R (setting [7]), -3.752%. At hP2X7R (hP2X7R, ethidium bromide accumulation, mean ± SD, triplicate), this molecule had an IC50 of 477 ± 170 nM. Moreover, the ΔΔGexp on hP2X7R (relative to UB-ALT-P30, from experimental pIC50 values, T = 298 K) turned out to be 1.43 ± 1.93 kcal/mol. Also, the “MAX100 (% of maximum accumulation, replicates 1-3)” value was 66.4908 and 84.0361 at hP2X7R (setting [2]); 77.5726 and 94.2771 and 71.3528 on hP2X7R (setting [3]); 56.9921 and 86.4458 and 61.5385 on hP2X7R (setting [4]); 60.1583 and 61.747 and 64.191 on hP2X7R (setting [5]); 0.7916 and 7.53 and 8.488 at hP2X7R (setting [6]); -6.86 and -5.723 and 1.326 at hP2X7R (setting [7]).

B1: full-length wild-type mouse P2X7 receptor (receptor, UniProt Q9Z1M0 1-595, looked up)
chain: MPACCSWNDVLQYETNKVTRIQSTNYGTVKWVLHMIVFSYISFALVSDKLYQRKEPVISSVHTKVKGIAEVTENVTEGGVTKLGHSIFDTADYTFPLQGNSFFVMTNYVKSEGQVQTLCPEYPRRGAQCSSDRRCKKGWMDPQSKGIQTGRCVPYDKTRKTCEVSAWCPTEEEKEAPRPALLRSAENFTVLIKNNIHFPGHNYTTRNILPTMNGSCTFHKTWDPQCSIFRLGDIFQEAGENFTEVAVQGGIMGIEIYWDCNLDSWSHHCRPRYSFRRLDDKNTDESFVPGYNFRYAKYYKENNVEKRTLIKAFGIRFDILVFGTGGKFDIIQLVVYIGSTLSYFGLATVCIDLLINTYSSAFCRSGVYPYCKCCEPCTVNEYYYRKKCESIMEPKPTLKYVSFVDEPHIRMVDQQLLGKSLQVVKGQEVPRPQMDFSDLSRLSLSLHDSPLTPGQSEEIQLLHEEVAPKSGDSPSWCQCGNCLPSRLPEQRRALEELCCRRKPGRCITTSKLFHKLVLSRDTLQLLLLYQDPLLVLGEEATNSRLRHRAYRCYATWRFGSQDMADFAILPSCCRWRIRKEFPKTEGQYSGFKYPY
modifications: palmitoylation of residues in the C-cys anchor
notes: P2X7 receptor (P2X purinoceptor 7), mouse, full-length wild-type, no mutations or truncations; C-terminal HRV 3-C site, GFP and histidine tag removed during purification; Homotrimeric ion channel; solved in the apo closed state; also called mP2X7R; mP2X7; not shown: GFP, C-terminal, cleaved
Consider B1, for which, in data set [1], the “stoichiometry N” value was 3.

B2: full-length wild-type human P2X7 receptor (receptor, UniProt Q99572 1-595, looked up)
chain: T1 sequence (Q99572 1-595)
modifications: palmitoylation of residues in the C-cys anchor; limited glycosylation, acylation and palmitoylation modelled
notes: P2X7 receptor (P2X purinoceptor 7), human, full-length wild-type, no mutations or truncations; C-terminal HRV 3-C site, GFP and histidine tag removed during purification; Homotrimeric ion channel; also called hP2X7R; hP2X7; not shown: GFP, C-terminal, cleaved
In the case of B2, the “stoichiometry N” value in data set [1] was found to be 3.
